Reference: PubChem BioAssay (NCI)
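The compound was tested at five concentrations on cells cultured in 96-well plates, with a 48-hour exposure period. GI50: concentration for 50% inhibition of growth. TGI is the concentration that stops growth completely.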

Legend:
Experiment in all cases: NCI tumour cell line growth inhibition, 48 h
HOP-92 NSCLC = system: HOP-92 NSCLC
U251 CNS = system: U251 CNS
SN12C renal = system: SN12C renal
NCI-H522 lung = system: NCI-H522 lung
NCI-H460 lung = system: NCI-H460 lung
UACC-257 melanoma = system: UACC-257 melanoma
NCI-H23 lung = system: NCI-H23 lung
K-562 leukemia = system: K-562 leukemia
CAKI-1 renal = system: CAKI-1 renal
MCF7 breast = system: MCF7 breast

Structure (SMILES): Cc1cc2c(c(C(N)=O)c1C)-c1ccccc1C2=O
- TGI (HOP-92 NSCLC): > 100 µM
- TGI (U251 CNS): > 100 µM
- TGI (SN12C renal): > 100 µM
- TGI (NCI-H522 lung): > 100 µM
- TGI (NCI-H460 lung): > 100 µM
- TGI (UACC-257 melanoma): > 100 µM
- TGI (NCI-H23 lung): > 100 µM
- TGI (K-562 leukemia): > 100 µM

Structure (SMILES): CC(C(=O)c1ccc(Cl)cc1)/C(=N/NC(=O)NN)C(=O)Nc1cccc(C(F)(F)F)c1 (stereo unspecified)
- TGI (U251 CNS): > 100 µM
- TGI (SN12C renal): > 100 µM
- TGI (NCI-H460 lung): > 100 µM
- TGI (UACC-257 melanoma): > 100 µM
- TGI (NCI-H23 lung): > 100 µM
- TGI (CAKI-1 renal): > 100 µM
- TGI (K-562 leukemia): > 100 µM

Structure (SMILES): Cc1ccccc1C1=[N+]([O-])c2ccc(Cl)cc2C1=O
- TGI (HOP-92 NSCLC): 28 µM
- TGI (U251 CNS): 32 µM
- TGI (SN12C renal): 28.5 µM
- TGI (NCI-H522 lung): 23.9 µM
- TGI (NCI-H460 lung): 30.9 µM
- TGI (UACC-257 melanoma): 26.4 µM
- TGI (NCI-H23 lung): 32.2 µM
- TGI (K-562 leukemia): 24.1 µM

Structure (SMILES): COC(=O)/C([Se]c1c(C)cc(C)cc1C)=C(/[Se]c1c(C)cc(C)cc1C)C(=O)OC
- TGI (HOP-92 NSCLC): > 100 µM
- TGI (U251 CNS): > 100 µM
- TGI (SN12C renal): > 100 µM
- TGI (NCI-H522 lung): > 100 µM
- TGI (NCI-H460 lung): > 100 µM
- TGI (UACC-257 melanoma): > 100 µM
- TGI (NCI-H23 lung): > 100 µM
- TGI (CAKI-1 renal): > 100 µM
- TGI (K-562 leukemia): > 100 µM

Structure (SMILES): CCC1CN2CCc3cc(OC)c(OC)cc3C2CC1CC1c2cc(OC)c(OC)cc2CCN1C(=O)C1CCCN1 (stereo unspecified)
- TGI (HOP-92 NSCLC): > 100 µM
- TGI (U251 CNS): 69.4 µM
- TGI (SN12C renal): > 100 µM
- TGI (NCI-H522 lung): 35.3 µM
- TGI (NCI-H460 lung): 74.8 µM
- TGI (UACC-257 melanoma): 41 µM
- TGI (NCI-H23 lung): > 100 µM
- TGI (CAKI-1 renal): > 100 µM
- TGI (K-562 leukemia): 51.4 µM

Structure (SMILES): CCC(C)(O)c1cnc(CC(C)C)c(=O)n1O (stereo unspecified)
- TGI (HOP-92 NSCLC): > 100 µM
- TGI (U251 CNS): > 100 µM
- TGI (SN12C renal): > 100 µM
- TGI (NCI-H460 lung): 81.8 µM
- TGI (UACC-257 melanoma): > 100 µM
- TGI (NCI-H23 lung): > 100 µM
- TGI (CAKI-1 renal): > 100 µM
- TGI (K-562 leukemia): 47.8 µM

Structure (SMILES): COc1cc(/C=C2\[C@H]3c4c(c(OC)c(C)c(OC)c4OC)CC(C(=O)N2Cc2ccccc2)N3C)c(OC)c(C)c1OC
- TGI (HOP-92 NSCLC): 49.9 µM
- TGI (U251 CNS): 34.7 µM
- TGI (SN12C renal): 33.1 µM
- TGI (NCI-H522 lung): 30.2 µM
- TGI (NCI-H460 lung): 32 µM
- TGI (UACC-257 melanoma): 39.6 µM
- TGI (NCI-H23 lung): > 100 µM
- TGI (CAKI-1 renal): 73.6 µM
- TGI (K-562 leukemia): 62.1 µM

Structure (SMILES): CCOC(=O)NC(=O)c1cn(C2CCCCC2)c(=O)[nH]c1=O
- TGI (HOP-92 NSCLC): > 100 µM
- TGI (U251 CNS): > 100 µM
- TGI (SN12C renal): > 100 µM
- TGI (NCI-H522 lung): > 100 µM
- TGI (NCI-H460 lung): > 100 µM
- TGI (UACC-257 melanoma): > 100 µM
- TGI (NCI-H23 lung): > 100 µM
- TGI (CAKI-1 renal): > 100 µM
- TGI (K-562 leukemia): > 100 µM

Structure (SMILES): CC(C)CCC[C@@H](C)C1CCC2[C@@H]3CC=C4C[C@@H](C(=O)NCCN(C)C)CC[C@]4(C)C3CC[C@@]21C (stereo partly specified)
- TGI (HOP-92 NSCLC): 61.4 µM
- TGI (U251 CNS): 77.4 µM
- TGI (SN12C renal): 46.7 µM
- TGI (NCI-H522 lung): > 100 µM
- TGI (NCI-H460 lung): > 100 µM
- TGI (UACC-257 melanoma): 77.1 µM
- TGI (NCI-H23 lung): 52.1 µM
- TGI (CAKI-1 renal): > 100 µM
- TGI (K-562 leukemia): > 100 µM

Structure (SMILES): COc1c(C)n(CCO)ccc1=O
- TGI (HOP-92 NSCLC): > 100 µM
- TGI (U251 CNS): > 100 µM
- TGI (SN12C renal): > 100 µM
- TGI (NCI-H522 lung): > 100 µM
- TGI (NCI-H460 lung): > 100 µM
- TGI (UACC-257 melanoma): > 100 µM
- TGI (CAKI-1 renal): > 100 µM
- TGI (K-562 leukemia): > 100 µM

Structure (SMILES): Nc1ccccc1C(=O)/C=C/c1c(O)ccc2ccccc12
- TGI (HOP-92 NSCLC): > 100 µM
- TGI (U251 CNS): > 100 µM
- TGI (SN12C renal): > 100 µM
- TGI (NCI-H522 lung): > 100 µM
- TGI (NCI-H460 lung): > 100 µM
- TGI (UACC-257 melanoma): > 100 µM
- TGI (NCI-H23 lung): > 100 µM
- TGI (CAKI-1 renal): > 100 µM
- TGI (K-562 leukemia): > 100 µM

Structure (SMILES): CC1CC(O)C(=O)C(O[C@@H]2C[C@@H]3CC[C@@H]4[C@H](CC[C@]5(C)C(C6=CC(=O)OC6)CC[C@]45O)[C@@]3(C=O)C[C@H]2O)O1 (stereo partly specified)
- TGI (U251 CNS): < 0.0486 µM
- TGI (NCI-H522 lung): < 0.0274 µM
- TGI (NCI-H460 lung): 0.0414 µM
- TGI (UACC-257 melanoma): 0.418 µM
- TGI (NCI-H23 lung): 0.0565 µM
- TGI (CAKI-1 renal): 0.0597 µM
- TGI (MCF7 breast): 0.152 µM

Structure (SMILES): Cc1[nH]c2ccccc2c1C1Cc2ccccc2N1C(=O)C#Cc1ccc([N+](=O)[O-])cc1 (stereo unspecified)
- TGI (U251 CNS): > 100 µM
- TGI (SN12C renal): > 100 µM
- TGI (NCI-H460 lung): > 100 µM
- TGI (UACC-257 melanoma): > 100 µM
- TGI (NCI-H23 lung): > 100 µM
- TGI (K-562 leukemia): > 100 µM

Structure (SMILES): Cn1c(=O)nc2n(-c3cc(C(F)(F)F)cc(C(F)(F)F)c3)c3ccccc3nc-2c1=O
- TGI (HOP-92 NSCLC): > 100 µM
- TGI (U251 CNS): > 100 µM
- TGI (SN12C renal): > 100 µM
- TGI (NCI-H460 lung): > 100 µM
- TGI (UACC-257 melanoma): > 100 µM
- TGI (NCI-H23 lung): > 100 µM
- TGI (CAKI-1 renal): > 100 µM
- TGI (K-562 leukemia): > 100 µM

Structure (SMILES): CC(=O)N1CCN(c2ccc(OCC3COC(Cn4ccnc4)(c4ccc(Cl)cc4Cl)O3)cc2)CC1 (stereo unspecified)
- TGI (HOP-92 NSCLC): > 100 µM
- TGI (SN12C renal): > 100 µM
- TGI (NCI-H522 lung): 99.7 µM
- TGI (NCI-H460 lung): > 100 µM
- TGI (UACC-257 melanoma): 51.1 µM
- TGI (CAKI-1 renal): > 100 µM
- TGI (K-562 leukemia): > 100 µM

Structure (SMILES): Cn1cc(-c2csc(-c3cn(CCCCN4CCCCC4)c4ccccc34)n2)c2cccnc21
- GI50 (HOP-92 NSCLC): 1.32 µM
- TGI (HOP-92 NSCLC): 2.7 µM
- GI50 (NCI-H460 lung): 1.83 µM
- TGI (NCI-H460 lung): 3.44 µM
- GI50 (NCI-H23 lung): 1.66 µM
- TGI (NCI-H23 lung): 3.21 µM

Structure (SMILES): COC(=O)C(=O)C(C(C)=O)C(=O)NCc1ccc(OC)c(OC)c1 (stereo unspecified)
- TGI (HOP-92 NSCLC): > 100 µM
- TGI (U251 CNS): > 100 µM
- TGI (SN12C renal): > 100 µM
- TGI (NCI-H522 lung): > 100 µM
- TGI (NCI-H460 lung): > 100 µM
- TGI (UACC-257 melanoma): > 100 µM
- TGI (NCI-H23 lung): > 100 µM
- TGI (CAKI-1 renal): > 100 µM
- TGI (K-562 leukemia): > 100 µM
